Source: patent US20230046018A1, “BIARYL COMPOUND AS PAN-RAF KINASE INHIBITOR” (MEDSHINE DISCOVERY INC., priority 2019, published 2023)
Read-outs that look alike come from different tables or passages of the source.

Experiments:
cRAF protein = target: T1, cRAF protein (Homo sapiens, UniProt P04049); assay: c-RAF enzyme inhibitory activity (ADP-Glo, MEK1 substrate); format: biochemical; conditions: MEK1 and ATP substrate
T1 construct: purchased Creative BioMart RAF1-416H
Procedure: Experiments for c-RAF Enzyme Inhibitory Activity
the compounds to be tested and reference compounds were diluted to 100 μM with DMSO, and the compounds were further subjected to a 3-fold gradient dilution using Echo to obtain target plates with 11 concentration gradients.
1) buffer formulation: 50 mM Tris-HCl (pH 7.4), 3.5 mM MgCl2, 150 mM NaCl, 1 mM DTT, 0.02% Triton X-100, H2O;
7) after 1 hour, the plate was read on Envision.

[1] = tested on: ERK phosphorylation in Ca1u-6(Kras^Q61K); assay: Ca1u-6 (Kras^Q61K) ERK phosphorylation inhibition (HTRF); format: cell-based, human; conditions: 1 hour with compound, read-out: Calu-6 ERK phosphorylation inhibitory activity IC50
Procedure: Experiments for Ca1u-6(Kras^Q61K) ERK Phosphorylation Inhibition
(§1) 1) cells were resuscitated, cultured to a logarithmic growth phase, then digested with trypsin and seeded in a 96-well plate, and the plate was incubated overnight in an incubator;
(§2) 2) serial gradients of compounds dissolved in DMSO were added to the 96-well plate, which was then put back into the incubator for 1 hour;
3) the cell plate was taken out; and the cells were incubated and lysed by adding cell lysates (containing 1% blocking peptide) for 30 minutes at room temperature;
(§3) 4) 16 μL of cell lysates per well was transferred to the HTRF plate, and then 4 μL of the mixed antibody solution formulated thereby was added;
(§4) 5) after overnight incubation, the plate was read on Envision; the fitted curves were obtained according to ratio (the ratio of Ex665/Ex615 fluorescence intensity); and EC50 was calculated with the four-parameter fitting formula, i.e., Y=Bottom+(Top−Bottom)/(1+10^((LogEC50−X)*Hill Slope)) on Graphpad.

HCT-116(Kras^G13D) = assay: HCT-116 (Kras^G13D) antiproliferative activity (CellTiter Glo); format: cell-based; conditions: HCT-116 (Kras^G13D) cells, three days
Procedure: Experiments for HCT-116(Kras^G13D) Antiproliferative Activity
(1) cell medium: 89% Mc'Coy 5A, 10% fetal bovine serum and 1% penicillin-streptomycin;
(2) the original medium in the cell culture flask was removed; the cells were digested with trypsin and then counted; and the cell suspension was diluted with the medium to a cell density of 2.5×10^4 cells per milliliter required for plating;
(§5) (3) 100 μL of the medium was added to the outermost circle of wells of the cell plate; 80 μL of the cell suspension was added to other wells; and the plate was cultured overnight in a 37° C. incubator with 5% CO2.
the compounds were subjected to a gradient dilution and then supplemented; and the cell plate was put back into the incubator for three days.
(§6) adding CTG and reading the plate involve adding 20 μL of CellTiterGlo to each well of the cell plate, shaking the plate for 10 min in the dark, and reading the plate on Victor Nivo.

Ca1u-6 (Kras^Q61K) = Ca1u-6 (Kras^Q61K) antiproliferative activity (CellTiter Glo); format: cell-based, human; conditions: Ca1u-6 (Kras^Q61K) cells, three days, read-out: Calu-6 anti-proliferative activity IC50
Procedure: Experiments for Ca1u-6 (Kras^Q61K) Antiproliferative Activity
(1) cell medium: 89% EMEM, 10% fetal bovine serum and 1% penicillin-streptomycin;
(2) the original medium in the cell culture flask was removed; the cells were digested with trypsin and then counted; and the cell suspension was diluted with the medium to a cell density of 3.75×10^4 cells per milliliter required for plating;
as §5
the compounds were subjected to a gradient dilution and then supplemented using Echo; and the cell plate was put back into the incubator for three days.
as §6

[2] = tested on: ERK phosphorylation in HCT116(Kras^G13D); assay: HCT116 (Kras^G13D) ERK phosphorylation inhibition (HTRF); format: cell-based, human; conditions: 1 hour with compound, read-out: HCT-116 ERK phosphorylation inhibitory activity IC50
Procedure: Experiments for HCT116(Kras^G13D) ERK Phosphorylation Inhibition
as §1, §2
3) the cell plate was taken out; the supernatant was removed; and the cells were incubated and lysed by adding cell lysates (containing 1% blocking peptide) for 30 minutes at room temperature;
as §3, §4

[3] = tested on: human lung cancer Ca1u-6 subcutaneous xenograft tumor; assay: In vivo pharmacodynamics, human lung cancer Ca1u-6 subcutaneous xenograft tumor BALB/c nude mouse model; conditions: 100 mg/kg PO QD × 21 days, Ca1u-6 xenograft, BALB/c nude mice
Procedure: When the cell saturation was 80% to 90%, and the number reached the requirement, the cells were collected, counted and inoculated.
Tumor diameter was measured twice a week with a vernier caliper.
TGI (%) reflected the tumor growth inhibition rate.

[4] = In vivo pharmacokinetics in mice; conditions: mouse, plasma, female CD-1 mice; for AUC: read-out: Curve area AUC
Source text: Experiments for In Vivo Pharmacokinetics in Mice
2) Experimental animals: 4 female CD-1 mice, which were divided into 2 groups, 2 mice in each group;
3) Drug formulation: An appropriate amount of the drug was weighed and dissolved in an aqueous solution of solutol (5% by volume), DMSO (5% by volume) and PEG-300 (25% by volume) for injection administration. An appropriate amount of the drug was weighed and dispersed in a 5% solutol aqueous solution (80% by volume), and then PEG-400 (20% by volume) was added; the mixture was mixed well and used for intragastric administration. Solutol is polyethylene glycol-15-hydroxystearate.
The animals in the first group were administered the compound at a dose of 2 mg/kg at a concentration of 1 mg/mL by intravenous administration. Plasma samples were collected from the animals at 0.117, 0.333, 1, 2, 4, 7 and 24 hours after administration. The animals in the second group were administered the compound at a dose of 100 mg/kg at a concentration of 10 mg/mL by intragastric administration. Plasma samples were collected from the animals at 0.0833, 0.25, 0.5, 1, 2, 4, 6, 8 and 24 hours after administration. The drug concentration at each point was determined by the LC-MS/MS method, and kinetic parameters of the tested drug were as follows: […]

[5] = Homo sapiens, Calu-6, 1 h, Ca1u-6 (Kras^Q61K) cells
[6] = Homo sapiens, HCT-116, HCT116 (Kras^G13D) cells
[7] = Homo sapiens, HCT-116, 1 h, HCT116 (Kras^G13D) cells

T1 sequence (P04049 whole entry): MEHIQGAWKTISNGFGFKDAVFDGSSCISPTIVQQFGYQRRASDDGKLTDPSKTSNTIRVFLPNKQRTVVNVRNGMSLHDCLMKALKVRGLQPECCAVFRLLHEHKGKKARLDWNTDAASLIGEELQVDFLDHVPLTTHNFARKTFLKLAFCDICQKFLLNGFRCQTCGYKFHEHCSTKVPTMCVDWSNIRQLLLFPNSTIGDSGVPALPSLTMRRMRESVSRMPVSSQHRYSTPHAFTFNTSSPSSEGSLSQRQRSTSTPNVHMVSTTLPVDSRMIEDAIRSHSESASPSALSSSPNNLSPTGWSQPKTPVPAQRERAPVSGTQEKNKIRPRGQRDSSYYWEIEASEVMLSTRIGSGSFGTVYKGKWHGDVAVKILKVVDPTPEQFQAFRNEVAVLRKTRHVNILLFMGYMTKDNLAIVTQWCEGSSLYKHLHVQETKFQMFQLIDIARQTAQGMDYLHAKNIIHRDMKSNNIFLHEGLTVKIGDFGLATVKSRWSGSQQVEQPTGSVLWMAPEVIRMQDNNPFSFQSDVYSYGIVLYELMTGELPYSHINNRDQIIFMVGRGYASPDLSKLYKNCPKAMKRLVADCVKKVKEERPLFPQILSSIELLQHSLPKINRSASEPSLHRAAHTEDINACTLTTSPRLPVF

Row | SMILES | IC50 (cRAF protein) | IC50 [1, 5] | IC50 (HCT-116(Kras^G13D); Homo sapiens, 72 h) | IC50 (Ca1u-6 (Kras^Q61K); Homo sapiens, Calu-6, 72 h) | also measured
1 | Cc1ccc(NC(=O)c2ccnc(C(C)(F)F)c2)cc1-c1cc(OCCO)nc(C23CCOCC2C3)c1 (stereo not drawn) [Compound 6] | 0.9 nM | 220 nM | 600 nM | 1000 nM | –
2 | Cc1ccc(NC(=O)c2ccnc(C(F)(F)F)c2)cc1-c1cc(OCCO)nc([C@]23COC[C@H]2C3)c1 [Compound 16B] | – | – | 1100 nM | 600 nM | IC50 [2, 6]: 180 nM; relative tumor proliferation rate T/C [3]: 11.4%; tumor growth inhibition rate TGI [3]: 99.1%; IC50 ([1]; Homo sapiens, Calu-6, Ca1u-6 (Kras^Q61K) cells): 490 nM; bioavailability ([4]; oral, intragastric 100 mg/kg versus intravenous 2 mg/kg, read-out: Bioavailability F): 131%; Tmax ([4]; po, intragastric administration 100 mg/kg, read-out: Maximum concentration time Tmax): 1 h; clearance ([4]; intravenous administration 2 mg/kg, read-out: Clearance rate Cl): 25.8 mL/min/kg; Vd ([4]; intravenous administration 2 mg/kg, read-out: Distribution volume Vd): 2.75 L/kg; half-life ([4]; intravenous administration 2 mg/kg, read-out: Half-life T1/2 (converted)): 1.43 h; AUC ([4]; po, intragastric administration 100 mg/kg): 178 µM·h; Cmax ([4]; po, intragastric administration 100 mg/kg, read-out: Maximum concentration Cmax): 25 µM; AUC ([4]; intravenous administration 2 mg/kg): 2.61 µM·h; C0 ([4]; intravenous administration 2 mg/kg, read-out: Initial concentration C0): 2.01 µM
3 | Cc1ccc(NC(=O)c2ccnc(C(F)(F)F)c2)cc1-c1cc(OC[C@H](O)CO)nc(C23CCOCC2C3)c1 (stereo partly drawn) [Compound 9] | 1.2 nM | 180 nM | 800 nM | 6400 nM | –
4 | Cc1ccc(NC(=O)c2ccnc(C(F)(F)F)c2)cc1-c1cc(OCCO)nc(C23COCC2C3)c1 (stereo not drawn) [Compound 16] | – | – | 2200 nM | 1300 nM | IC50 [2, 6]: 160 nM
5 | Cc1ccc(NC(=O)c2ccnc(C(F)F)c2)cc1-c1cc(OCCO)nc(C23CCOCC2C3)c1 (stereo not drawn) [Compound 5] | 1 nM | 170 nM | 2600 nM | 4600 nM | –
6 | COC[C@@H](O)COc1cc(-c2cc(NC(=O)c3ccnc(C(F)(F)F)c3)ccc2C)cc(C23CCOCC2C3)n1 (stereo partly drawn) [Compound 10] | 2.5 nM | – | 5300 nM | 7100 nM | –
7 | Cc1ccc(NC(=O)c2ccnc(C(F)(F)F)c2)cc1-c1cc(OCCO)nc(C23CCOCC2C3(F)F)c1 (stereo not drawn) [Compound 11] | 2.8 nM | 430 nM | 800 nM | 1100 nM | –
8 | Cc1ccc(NC(=O)c2ccnc(C(F)(F)F)c2)cc1-c1cc(C23CCOCC2C3)cc(OCCO)n1 (stereo not drawn) [Compound 8] | 1.1 nM | 350 nM | 1100 nM | 1000 nM | –
9 | Cc1ccc(NC(=O)c2ccnc(C(F)(F)F)c2)cc1-c1cc(N2CC(O)C2)nc(C23CCOCC2C3)c1 (stereo not drawn) [Compound 13] | – | 390 nM | 200 nM | 200 nM | –
10 | Cc1ccc(NC(=O)c2ccnc(C(F)(F)F)c2)cc1-c1cc(OCC(C)(C)O)nc(C23CCOCC2C3)c1 (stereo not drawn) [Compound 15] | – | 330 nM | 900 nM | 4700 nM | –
11 | Cc1ccc(NC(=O)c2ccnc(C(F)(F)F)c2)cc1-c1cc(OCCO)nc(C23CCOCC2C3)c1 (single isomer, unassigned) [Compound 1A] | 2.5 nM | 220 nM | 600 nM | 1200 nM | IC50 [2, 7]: 140 nM
12 | Cc1ccc(NC(=O)c2ccnc(C(F)(F)F)c2)cc1-c1cc(OCCO)nc(C23CCOCC2(C#N)C3)c1 (stereo not drawn) [Compound 14] | – | 330 nM | 400 nM | 3500 nM | –
13 | Cc1ccc(NC(=O)c2ccnc(C(F)(F)F)c2)cc1-c1cc(SCCO)nc(C23CCOCC2C3)c1 (stereo not drawn) [Compound 7] | 2.5 nM | – | – | – | –
14 | Cc1ccc(NC(=O)c2ccnc(C(F)(F)F)c2)cc1-c1cc(N(C)CCO)nc(C23CCOCC2C3)c1 (stereo not drawn) [Compound 2] | 2.7 nM | – | 2300 nM | 1100 nM | IC50 [2, 7]: 210 nM
15 | Cc1ccc(NC(=O)c2ccnc(C(F)(F)F)c2)cc1-c1cc(OCCO)nc(C23CCOCC2C3)c1 (single isomer, unassigned) [Compound 1B] | 2 nM | – | – | – | IC50 ([2]; HCT116 (Kras^G13D) cells): 220 nM; IC50 ([1]; Ca1u-6 (Kras^Q61K) cells): 250 nM; IC50 (HCT-116(Kras^G13D)): 600 nM; IC50 (Ca1u-6 (Kras^Q61K)): 960 nM
16 | Cc1ccc(NC(=O)c2ccnc(C(F)(F)F)c2)cc1-c1cc(NCCO)nc(C23CCOCC2C3)c1 (stereo not drawn) [Compound 3] | 1.7 nM | – | 2300 nM | 1400 nM | IC50 [2, 7]: 190 nM
